# Like-named read-outs stand apart in the source and are kept apart here. Marks after values point to notes of the source that are not given here.
# Experiments:
# [1] = test system: relapsed and refractory MM; conditions: cited from earlier work
# [2] = test system: OPM2 xenograft; experiment: Efficacy dose titration of pomalidomide in OPM2 xenograft; assay type: in vivo; conditions: for LCK (Log cell kill) / Median Days to Target Size / TGI (Tumor growth inhibition) / Weight Change % / CR (Complete regression) / PR (Partial regression): d14, 21; for CR (Complete regression) / PR (Partial regression): mice of 8; for effect on tumor growth (in words): pomalidomide 0.5, 5 and 50 mg/kg orally
# Method: FIG. 1. Antitumor Activity of pomalidomide treatment on OPM2 Multiple Myeloma Xenograft. Pomalidomide was administered at either 0.5 mg/kg, 5 mg/kg, or 50 mg/kg. […] Group one was left untreated (control, circles), group two treated with pomalidomide (50 mg/kg, triangles), group three treated with pomalidomide (5 mg/kg, squares), group four treated with pomalidomide (0.5 mg/kg, diamonds). All treatment sets were dosed daily for 5 days orally starting on d14 and then again for 5 days on d21. The data are presented as means+/−standard deviation. From this experiment the suboptimal 5 mg/kg dose was chosen as the dose to use in combination studies with elotuzumab and/or dexamethasone. […]
# To assess the effect of pomalidomide treatment on the growth of the OPM2 xenograft, scid mice with established tumors were treated orally with pomalidomide at doses of 0.5 mg/kg, 5 mg/kg and 50 mg/kg. […] From this experiment the suboptimal 5 mg/kg dose was chosen as the dose to use in the combination studies (Study #1, OPM2-15 and Study #2, OPM2-16).
# [3] = test system: multiple myeloma; conditions: cited from earlier work
# [4] = Study CA204112, elotuzumab administration in <1 hour (5 ml/min); assay type: in vivo, human; conditions: infusion rate escalated to 5 ml/min by the third dose; with lenalidomide/dexamethasone
# Method: Preliminary data are available for an ongoing study CA204112 with elotuzumab administration in <1 hour (5 ml/min) combined with lenalidomide/dexamethasone in newly diagnosed and relapsed/refractory myeloma. In this trial, the infusion rate was escalated to 5 ml/min by the third elotuzumab dose.
# [5] = test system: primary multiple myeloma cells; conditions: in the presence of peripheral lymphocytes; cited from earlier work
# [6] = biological target: T1, SLAMF7 (Homo sapiens, UniProt Q9NQ25); experiment: Saturation of SLAMF7 on bone marrow plasma cells, Phase 2 study of elotuzumab and lenalidomide/dexamethasone; assay type: in vivo; conditions: doses ≥10 mg/kg
# T1 construct: endogenous in cells; host or cells: bone marrow plasma (myeloma) cells from multiple myeloma subjects treated with elotuzumab plus lenalidomide/dexamethasone
# T1 sequence (Q9NQ25 23-335): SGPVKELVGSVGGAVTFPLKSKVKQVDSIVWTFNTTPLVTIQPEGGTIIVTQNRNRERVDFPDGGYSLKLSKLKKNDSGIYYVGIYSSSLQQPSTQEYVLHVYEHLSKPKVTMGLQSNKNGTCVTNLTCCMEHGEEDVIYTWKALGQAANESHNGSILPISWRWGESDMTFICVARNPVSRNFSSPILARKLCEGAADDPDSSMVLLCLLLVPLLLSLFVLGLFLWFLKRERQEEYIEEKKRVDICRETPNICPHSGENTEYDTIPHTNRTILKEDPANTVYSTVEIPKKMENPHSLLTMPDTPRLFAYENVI
# Method: FIG. 7. Saturation of SLAMF7 Target on Bone Marrow Myeloma Samples from Subjects Treated in a Phase 2 Study of Elotuzumab and Lenalidomide/Dexamethasone (HuLuc63).
# Following elotuzumab dosing of 10 and 20 mg/kg in combination with lenalidomide, the observed steady-state Cmin values consistently remained above 70 μg/mL, the minimum efficacious trough concentrations (Lonial et. al., J Clin Oncol. 30(16):1953-1959. (2012)). […] Given the lack of difference in efficacy, safety, PK and SLAMF7 saturation between 10 and 20 mg/kg, the 10 mg/kg weekly for the first 2 cycles followed by 20 mg/kg monthly thereafter, was selected to improve patient convenience and compliance.
# [7] = Infusion reactions in Study CA204009; assay type: in vivo, human
# From the text: Elotuzumab can cause infusion reactions. Infusion reactions were reported in approximately 10% of patients treated with elotuzumab, lenalidomide and dexamethasone in Study CA204004 and in 7% of patients treated with elotuzumab, bortezomib and dexamethasone in Study CA204009. All reports of infusion reaction were ≤Grade 3. Grade 3 infusion reactions occurred in 1% of patients in Study CA204004 and in no patients in Study CA204009. The most common symptoms of an infusion reaction included fever, chills and hypertension. In Study CA204004, 5% of patients required interruption of the administration of elotuzumab due to infusion reaction for a median of 25 minutes and 1% of patients discontinued due to infusion reactions. In Study CA204009, 20% of patients required interruption of the administration of elotuzumab for a median of 40 minutes and none discontinued due to infusion reactions. Of the patients who experienced an infusion reaction, 70% (23/33) in Study CA204004 and 80% (4/5) in Study CA204009 had them during the first dose.
# (§1) The maximum infusion rate of 2 ml/min was initially explored in the phase 1 and 2 elotuzumab clinical trials. However, the phase 2 portion of the CA204003 (1703) and the CA204009 studies allowed an infusion rate escalation in subjects without infusion reactions for a minimum of 4 cycles of study therapy at 2 ml/min. The infusion rates are allowed to increase by 1 ml/min per cycle, up to 5 ml/min.
# (§2) Preliminary safety data of the 5 ml/minute infusion rate are based on an analysis of subjects who escalated the elotuzumab infusion to 5 ml/minute in the CA204003 (1703) and CA204009 studies. In the phase 2 portion of the CA204003 (1703) study, 33% of all study infusions and 42.5% of subjects received infusions at 5 ml/min. In subjects who were administered infusions ≤2 ml/min, there were 7 grade 1-2 infusion reactions, and 1 grade 3-4 infusion reaction. […] In the randomized phase 2 CA204009 study, 27% of all subjects and 9% of all infusions on the investigational arm received infusions at 5 ml/min.
# [8] = 10 and 20 mg/kg in combination with lenalidomide; cited from earlier work
# [9] = Infusion reactions by infusion rate, phase 2 portion of CA204003 (1703); assay type: in vivo, human
# Method: as §1, §2
# [10] = 38 subjects, including 22 with dexamethasone added
# [11] = pomalidomide 0.5 mg/kg PO QD × 5
# [12] = pomalidomide 50 mg/kg PO QD × 5
molecule,measurement,setting,value
"Nc1cccc2c1C(=O)N(C1CCC(=O)NC1=O)C2=O (racemic) [Pomalidomide, (RS)-4-amino-2-(2,6-dioxo-piperidin-3-yl)-isoindole-1,3-dione]",number of DLTs (Grade 4 neutropenia),[1]; 5 mg daily Days 1-21 of 28-day cycle,4
same,treatment-emergent Grade 3/4 anemia,"[1]; 38 subjects, 2-5 mg",21%
same,treatment-emergent Grade 3/4 fatigue,"[1]; 38 subjects, 2-5 mg",16%
same,treatment-emergent Grade 3/4 neutropenia,"[1]; 38 subjects, 2-5 mg",53%
same,treatment-emergent Grade 3/4 thrombocytopenia,"[1]; 38 subjects, 2-5 mg",18%
same,subjects achieving CR,[1]; [10],3%
same,subjects achieving ≥MR or better,[1]; [10],42%
same,subjects achieving ≥PR,[1]; [10],21%
same,MTD,[1]; Days 1-21 of 28-day cycle,4 mg/day
same,LCK (Log cell kill),[2]; [11],0.19^g
same,Median Days to Target Size,[2]; [11],25 days
same,TGI (Tumor growth inhibition),[2]; [11],45%
same,Weight Change %,[2]; [11],9.3%
same,CR (Complete regression),[2]; [11],0/8
same,PR (Partial regression),[2]; [11],0/8
same,LCK (Log cell kill),[2]; pomalidomide 5 mg/kg PO QD × 5,0.59^f
same,Median Days to Target Size,[2]; pomalidomide 5 mg/kg PO QD × 5,29 days
same,TGI (Tumor growth inhibition),[2]; pomalidomide 5 mg/kg PO QD × 5,63.1%
same,Weight Change %,[2]; pomalidomide 5 mg/kg PO QD × 5,3.2%
same,CR (Complete regression),[2]; pomalidomide 5 mg/kg PO QD × 5,0/8
same,PR (Partial regression),[2]; pomalidomide 5 mg/kg PO QD × 5,0/8
same,LCK (Log cell kill),[2]; [12],1.0^e
same,Median Days to Target Size,[2]; [12],33 days
same,TGI (Tumor growth inhibition),[2]; [12],87.1%
same,Weight Change %,[2]; [12],4.7%
same,CR (Complete regression),[2]; [12],0/8
same,PR (Partial regression),[2]; [12],1/8
same,effect on tumor growth (in words),[2],suppressed tumor growth in a dose-dependent fashion
same,effect on tumor growth (in words),[2]; listed as pomalidomide,inhibited tumor growth in a dose-dependent fashion
same,ORR (≥PR),[3]; 2 mg/day,29%
same,median PFS,[3]; 2 mg/day,5.5 months
same,median duration of response,[3]; 2 mg/day,14.1 months
same,ORR (≥PR),[3]; 4 mg/day,35%
same,median PFS,[3]; 4 mg/day,6.9 months
same,median duration of response,[3]; 4 mg/day,14.5 months
"Elotuzumab: humanized monoclonal IgG1 antibody directed against CS-1; VL SEQ ID NO:1, VH SEQ ID NO:2",frequency of infusion reactions,[4],no increased frequency of infusion reactions
same,ADCC,[5],induces significant antibody-dependent cellular cytotoxicity (ADCC)
same,saturation of SLAMF7 on bone marrow plasma cells,[6],complete saturation
same,median duration of interruption,[7],40 min
same,patients discontinued due to infusion reactions,[7],none
same,patients requiring interruption of administration,[7],20%
same,patients with Grade 3 infusion reactions,[7],no patients
same,patients with infusion reaction who had it during the first dose,[7],80%
same,infusion reactions,[7]; subjects reaching infusion rates >2 ml/min,no infusion reactions of any grade
same,patients with infusion reactions,[7]; with bortezomib and dexamethasone,7%
same,steady-state Cmin,[8],above 70 μg/mL
same,grade 3-4 infusion reactions,[9]; infusion rates >2 ml/min,no grade 3-4 infusion reactions
same,number of grade 1-2 infusion reactions,[9]; infusion rates >2 ml/min,1
same,number of grade 1-2 infusion reactions,[9]; infusions ≤2 ml/min,7
same,number of grade 3-4 infusion reactions,[9]; infusions ≤2 ml/min,1
